Key:
Assay type in all cases: cell-based
[1] = system: Human umbilical vein endothelial cells; assay: VEGF/HGF-triggered vasculogenesis in 3-D fibrin gel, or growth in 2-D culture; conditions: 3-D culture, VEGF/HGF-stimulated, blebbistatin or nocodazole
From the text: (§1) At sites of tissue damage, inflammation or neoplasia, fibrinogen is converted into a 3-D meshwork of fibrin fibrils that serve as a structural support for endothelial cells undergoing neovascularization (Chun et al. 2006. Cell, 125: 577-591; Hiraoka et al. 1998. Cell, 95: 365-377; Schafer and Werner. 2008. Nat. Rev. Mol. Cell Biol., 9: 628-638; Zhou et al. 2008. Genes Dev., 22: 1231-1243). This process can be recapitulated in vitro by embedding serum-supplemented human endothelial cells within a 3-D fibrin gel in the presence of the pro-angiogenic factors, VEGF and HGF. Human umbilical vein endothelial cells were isolated from umbilical cords by perfusion of the umbilical vein with type 3 collagenase (Worthington, Lakewood, N.J.) and cultured in Medium-199 (Invitrogen, Carlsbad, Calif.) with 20% human serum and 50 μg/ml endothelial cell growth supplement (ECGS; BD Biosciences, Franklin Lakes, N.J.). For 3-D culture, endothelial cells were suspended in a solution of thrombin and aprotinin (Sigma, St. Louis, Mo.) and mixed 1:1 with a solution of 6 mg/ml fibrinogen (Calbiochem, Gibbstown, N.J.). Vasculogenesis was triggered by treatment with 100 ng/ml VEGF, 50 ng/ml HGF (Genentech, San Francisco, Calif.). Fibronectin fibrillogenesis was tracked in 3-D by co-culture with human fibronectin (Sigma) labeled with Alexa-594 (Invitrogen).
In the presence of VEGF and HGF, endothelial cells i) underwent marked changes in cell morphology from spherical to elongated, ii) mobilized proteinases which degrade the surrounding fibrin, iii) assembled a pericellular meshwork of fibronectin fibrils, and iv) initiated proliferative and tubulogenic responses that result in the formation of an anastomosing network of neovessels over a 6 day culture period (Hiraoka, supra; Saunders et al., 2006. J Cell Biol. 175: 179-191; Zhou et al., 2008. Proc. Natl. Acad. Sci. USA, 97: 4052-4057). […] Cell, 125: 757-767; Saunders et al., supra; Tomasini-Johansson et al., 2001. J. Biol. Chem., 276: 23430-23439; Zhou et al, supra). Endothelial cells cultured atop—rather than embedded within—fibrin gels (herein referred to as 2-D culture) display distinct growth requirements from those observed in 3-D culture.
Taken together, cytoskeletal reorganization and contractile tension may serve as the biomechanical effectors that transmit structural and mechanical cues from the pericellular ECM to the nuclear envelope. VEGF/HGF-stimulated endothelial cells were treated with either (a) blebbistatin to inhibit myosin ATPase function, or (b) nocodazole to prevent microtubule assembly under 3-D culture conditions (Salpingidou et al., 2007. J. Cell Biol., 178: 897-904; Zhou et al., supra).

[2] = system: Human umbilical vein endothelial cells; assay: Nuclear architecture (GFP-lamin A, emerin) and nuclear pore complex (NUP153) distribution; conditions: 3-D culture, VEGF/HGF-stimulated, blebbistatin or nocodazole
From the text: as §1
As the 3-D-specific requirements for MT-MMPs and fibronectin matrix assembly correlate with changes in endothelial cell morphology, efforts were initiated to identify mechanistic routes whereby cell shape changes impact cell function. In particular, the impact of ECM remodeling on nuclear architecture was investigated. Nuclear architecture was tracked by either transfecting cells with a GFP-tagged form of the nuclear matrix filament, lamin A, or by immunostaining for the integral nuclear membrane protein, emerin (Dahl et al., 2008. Circ. Res., 102: 1307-1318; Glynn and Glover, 2005. Hum. Mol. Genet., 14: 2959-2969; Starr, 2009. J. Cell Sci., 122: 577-586; Stewart et al., 2007. Science, 318: 1408-1412). Under 2-D conditions, endothelial cell nuclei assumed an ellipsoid shape when cultured atop fibrin gels in the absence or presence of VEGF/HGF. In marked contrast, under 3-D conditions, endothelial cells cultured within fibrin gels in the absence of VEGF/HGF unexpectedly display a distorted morphology with multiple lamin A matrix and emerin infoldings and surface irregularities. Upon addition of VEGF/HGF, however, the nuclei of fibrin-embedded endothelial cells undergo a dramatic, and 3-D-specific, remodeling to assume a more classic, ovoid morphology. Three-dimensional reconstructions of DAPI-stained nuclei confirm that nuclear architecture transitions between multi-lobed and smooth elliptical shapes in the absence or presence, respectively, of VEGF/HGF.
Nuclear matrix architecture controls the distribution of the nuclear pore complexes that regulate the trafficking of protein and RNA across the nuclear envelope (Goldman et al., 2004. Proc. Natl. Acad. Sci. USA, 101: 8963-8968; Hawryluk-Gara et al., 2005. Mol. Biol. Cell, 16: 2382-2394; Liu et al., 2007. J. Cell. Biol., 178: 785-798). As such, the localization of nuclear pores was assessed in intact cells by monitoring the localization of the component protein, NUP153. In 3-D culture, unstimulated endothelial cells accumulate NUP153-containing pore complexes at nuclear membrane invaginations. In contrast, the nuclei of VEGF/HGF-stimulated endothelial cells display a uniform distribution of pore complexes in nuclear membranes.
To determine the roles of MMP-dependent proteolysis and fibronectin matrix assembly in mediating nuclear shape and nuclear pore complex changes, fibrin-embedded endothelial cells were stimulated with VEGF/HGF in the presence of FUD or GM6001. […]

[3] = system: Human umbilical vein endothelial cells; assay: Chromatin organization (GFP-H2B, H3K9me3) and histone H3/H4 acetylation; conditions: 3-D culture, VEGF/HGF-stimulated, blebbistatin or nocodazole
From the text: as §1
Yet, multi-lobed nuclei and anomalous nuclear pore complex distributions can be observed in laminopathies, a pleiotropic series of genetic disorders wherein mutations in lamin or emerin impact chromatin organization, histone modifications, and transcriptional activity (Csoka et al., 2004. Aging Cell, 3: 235-243; Dechat et al., 2008. Genes Dev, 22: 832-853; Dillon, 2008. Dev Cell, 15: 182-186; Malhas et al., 2007. J. Cell Biol., 176: 593-603; Mendjan et al., 2006. Mol. Cell, 21: 811-823; Shumaker et al., 2006. Proc. Natl. Acad. Sci. USA, 103: 8703-8708; Tang et al., 2008. J. Cell Sci., 121: 1014-1024). To determine whether VEGF/HGF-dependent changes in nuclear shape similarly affect chromatin structure/function, chromatin packaging was tracked at the single-endothelial cell level by monitoring GFP-tagged histone H2B or pericentromeric constitutive heterochromatin localization. […] heterochromatin localization was visualized by immunostaining for trimethylated lysine 9 of histone H3 (H3K9me3) (Shumaker, supra; Tang, supra).
Histone acetylation can be regulated by chromatin positioning within the nucleus (Finlan et al., 2008. PLoS Genet, 4: e1000039; Somech et al., 2005. J. Cell Sci., 118: 4017-4025). Thus, the acetylation status of histones H3 and H4 was assessed as functional markers of changes in chromatin organization. […]

[4] = system: Human umbilical vein endothelial cells; assay: Cytoskeletal organization (F-actin, β-tubulin, vimentin) and isometric tension/contractile force; conditions: 3-D culture, VEGF/HGF-stimulated, blebbistatin or nocodazole
human endothelial cells [5] = assay: Fn matrix assembly by endothelial cells in 3-D fibrin gel, confocal laser microscopy; conditions: growth factor cocktail, FUD or Del29 250 nM, L8 or 9D2 100 μg/ml, 70 kDa Fn fragment 75 μg/ml
Protocol: Endothelial cells were isolated from human umbilical cord veins by collagenase digestion and cultured in Medium 199 (Gibco) containing 20% human serum, 50 μg/ml endothelial cell growth supplement (BD Biosciences), 100 U/ml penicillin, and 100 μg/ml streptomycin (Hiraoka et al. 1998. Cell, 95(3): 365-377). For 2-D/3-D culture, endothelial cell monolayers (no later than third passage) were suspended by mild trypsinization and dispersed within or plated atop fibrin (3 mg/ml) or collagen (2.2 mg/ml) gels (prepared as described in Hiraoka, supra, and Hotary et al. 2003. Cell, 114(1): 33-45), and stimulated with a cocktail of growth factors including 100 ng/ml human vascular endothelial growth factor (Genentech), 50 ng/ml human hepatocyte growth factor (Genentech), 10 ng/ml human TGFα (Biosource), 0.5 ng/ml TGFβ1 (R and D Systems), and 100 μg/ml heparin (Sigma). In selected experiments, endothelial cell spheroids were prepared and suspended in 3-D fibrin gels.
The effect of Fn matrix assembly, or lack thereof, on endothelial cell function during neovascularization was assessed. Human serum was depleted of Fn by gelatin-sepharose affinity chromatography (Amersham) and supplemented with either 20 μg/ml of human plasma Fn (Sigma) or FITC-labeled Fn. […]
(Chernousov et al. 1991. J. Biol. Chem., 266(17): 10851-10858; Tomasini-Johansson et al. 2001. J. Biol. Chem., 276(26): 23430-23439; Mao and Schwarzbauer. 2005. Matrix Biol., 24(6): 389-399; and Tomasini-Johansson et al. 2006. Matrix Biol., 25(5): 282-293). […] Cell number in 3-D cultures was determined by hemacytometry after dissolving gels with 2 mg/ml bacterial collagenase (Worthington) while the number of patent tubules was determined in randomly selected cross-sections. Fn matrix assembly and cell morphology were monitored by confocal laser microscopy. To examine cell migration, endothelial cells were embedded in a 100 μl fibrin gel for 2 hours, then placed within a 500 μl gel for 8 days in the presence of Del29, FUD, control IgG, or L8, after which migration from the inner gel was assessed. […]

human endothelial cells [6] = assay: F-actin cytoskeletal organization, activated β1 integrin and vinculin distribution (phalloidin, confocal); conditions: 3-D fibrin gel, 2 days, FUD or Del29 peptide
Protocol: To further study the effects of Fn matrix inhibition, additional cytological processes associated with angiogenesis were examined. Endothelial cells were cultured within 3-D or 2-D fibrin gels in the presence of the FUD or Del 29 peptides for 2 days. F-actin cytoskeletal organization was monitored following staining with Alexa 488-conjugated phalloidin. Cells also were stained with an antibody against activated β1 integrin or transfected with a GFP-tagged vinculin expression vector (pRK-vinculin-EGFP) to study distribution. Following counterstaining with Alexa 594-labeled phalloidin, fluorescence was monitored by confocal laser microscopy.
In the absence of Fn fibrillogenesis, an impaired ability of embedded endothelial cells to generate myosin-dependent forces and increase cytoplasmic stiffness was predicted to affect both Fn unfolding, as well as the ability of the cells to properly register the mechanical properties of the surrounding substratum (Wu et al. 1995. Cell, 83(5): 715-724; Zhong et al. 1998. J. Cell Biol., 141(2): 539-551; Baneyx et al. 2002. Proc. Natl. Acad. Sci. USA, 99(8): 5139-5143; Discher et al. 2005. Science, 310(5751): 1139-1143; Engler, supra; and Yoneda, supra). As such, the rheologic and functional characteristics of endothelial cells were assessed in the presence of the specific myosin ATPase inhibitor, blebbistatin. […]

COC(=O)Nc1nc2ccc(C(=O)c3cccs3)cc2[nH]1 [nocodazole]
endothelial cell 3-D tubulogenesis [1]: completely inhibit | nuclear shape and nuclear pore distribution [2]: multi-lobed nuclei with perturbations in nuclear pore distribution | chromatin distribution [3]: chromatin condensations at the nuclear periphery with increased interchromatin space | levels of acetylated histones H3 and H4 [3]: decreased levels | contractile force exerted on the 3-D ECM [4]: impairing

Del29: control peptide wherein FUD residue 29 is deleted to abrogate Fn binding (KDQSPLAGESGETEYITEVYGNQQNPVDDKKLPNETGFSGNMVETEDT)
Fn matrix assembly (Fn polymerization) (human endothelial cells [5]): did not negatively impact | stress fiber formation (F-actin phalloidin staining) (human endothelial cells [6]): well-organized stress fibers
